In PubChem BioAssay (NCI):
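Each compound was tested at five concentrations against cells in 96-well plates for 48 hours. At the TGI there is no net growth.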

Tests used:
Assay in all cases: NCI tumour cell line growth inhibition, 48 h
[1] = test system: ACHN renal
[2] = test system: IGROV1 ovarian
[3] = test system: HCT-15 colon
[4] = test system: RPMI-8226 leukemia
[5] = test system: HL-60(TB) leukemia
[6] = test system: MOLT-4 leukemia
[7] = test system: COLO 205 colon
[8] = test system: SR leukemia
[9] = test system: HOP-92 NSCLC
[10] = test system: SNB-75 CNS
[11] = test system: SK-MEL-5 melanoma
[12] = test system: NCI-H23 lung
[13] = test system: HT29 colon
[14] = test system: A498 renal
[15] = test system: UO-31 renal
[16] = test system: U251 CNS
[17] = test system: MDA-MB-231 breast
[18] = test system: T-47D breast
[19] = test system: SK-OV-3 ovarian

SMILES | TGI [1] | TGI [2] | TGI [3] | TGI [4] | TGI [5] | TGI [6] | TGI [7] | TGI [8] | TGI [9] | TGI [10] | TGI [11] | TGI [12] | TGI [13] | TGI [14] | TGI [15] | TGI [16] | TGI [17] | TGI [18] | TGI [19]
Nc1ccc(Oc2ccc(C3(c4ccc(Oc5ccc(N)cc5)cc4)C4CC5C6CC7CC5C3C(C7)C6C4)cc2)cc1 | > 100 µM | > 100 µM | > 100 µM | > 100 µM | > 100 µM | > 100 µM | > 100 µM | > 100 µM | 49 µM | > 100 µM | > 100 µM | > 95.3 µM | > 100 µM | 18.9 µM | > 100 µM | > 70 µM | 77 µM | – | –
Cc1nnc2sc(Cl)nn12 | 54.8 µM | 30.7 µM | 45.6 µM | > 100 µM | – | 29.3 µM | 29.9 µM | – | – | > 100 µM | 25.2 µM | 34.8 µM | 32.9 µM | > 100 µM | 74 µM | 31.4 µM | 54.4 µM | 73.4 µM | 31 µM
COc1cccc(C(=O)Nc2c3ccccc3nc3ccccc23)c1OC | > 100 µM | > 100 µM | > 100 µM | > 100 µM | > 100 µM | > 100 µM | > 100 µM | > 100 µM | – | 71 µM | > 100 µM | > 100 µM | > 100 µM | – | 14.7 µM | > 100 µM | > 100 µM | > 100 µM | > 100 µM
CCc1n[nH]c(=O)n1N1C(=O)CCC1=O | > 100 µM | > 100 µM | > 100 µM | > 100 µM | – | > 100 µM | > 100 µM | > 100 µM | – | > 100 µM | > 100 µM | – | > 100 µM | > 100 µM | > 100 µM | > 100 µM | > 100 µM | > 100 µM | > 100 µM
Cc1ccc(/C=N/Nc2nc3ccccc3s2)s1 | > 100 µM | > 100 µM | > 100 µM | > 100 µM | > 100 µM | > 100 µM | > 100 µM | – | > 100 µM | > 100 µM | > 100 µM | > 100 µM | > 100 µM | – | > 100 µM | > 100 µM | 89.8 µM | > 100 µM | > 100 µM
CC1=CC=C2c3ccccc3C=CN2C(=O)C1 | > 100 µM | > 100 µM | > 100 µM | > 100 µM | 41.2 µM | > 100 µM | > 100 µM | > 100 µM | – | > 100 µM | 46.1 µM | > 100 µM | > 100 µM | – | > 100 µM | > 100 µM | > 100 µM | > 100 µM | > 100 µM
CCOC(=O)C(NC(=O)C(CCCCNP(=O)(OCC)OCC)NC(=O)C(C)NC(C)=O)C(C)C (stereo not given) | > 100 µM | > 100 µM | > 100 µM | > 100 µM | > 100 µM | > 100 µM | > 100 µM | > 100 µM | > 100 µM | > 100 µM | > 100 µM | > 100 µM | > 100 µM | > 100 µM | > 100 µM | > 100 µM | > 100 µM | – | –
COc1ccc(N=Nc2c(C)c(C#N)c(=S)n(C3OC(COC(C)=O)C(OC(C)=O)C(OC(C)=O)C3OC(C)=O)c2C)cc1 (stereo not given) | > 100 µM | > 100 µM | – | > 100 µM | > 100 µM | > 100 µM | > 100 µM | > 100 µM | 63.5 µM | 42.6 µM | > 100 µM | > 100 µM | > 100 µM | – | > 100 µM | – | 71 µM | > 100 µM | > 100 µM
Cc1n[n+](CC(=O)c2ccccc2)c2sc(N)nn12 | > 100 µM | > 100 µM | > 100 µM | > 100 µM | – | > 100 µM | > 100 µM | – | – | > 100 µM | > 100 µM | > 100 µM | > 100 µM | > 100 µM | > 100 µM | > 100 µM | > 100 µM | > 100 µM | > 100 µM
CCOC(=O)[C@@H]1OC(c2ccccc2)O[C@H]1C(=O)OCC | > 100 µM | > 100 µM | > 100 µM | > 100 µM | – | > 100 µM | > 100 µM | > 100 µM | > 100 µM | > 100 µM | > 100 µM | > 100 µM | > 100 µM | > 100 µM | > 100 µM | > 100 µM | > 100 µM | – | > 100 µM
Cc1cc(N)ccc1N=Nc1ccc(S(=O)(=O)CCOS(=O)(=O)O)cc1 | 14.4 µM | 13.9 µM | 11.3 µM | > 45.4 µM | > 38.1 µM | > 32.5 µM | 6.08 µM | > 100 µM | 19.5 µM | 19.8 µM | 2.23 µM | 24.5 µM | 6.53 µM | 31.1 µM | 8.63 µM | 13.1 µM | – | > 59.1 µM | –
CCOC(=O)CC(=O)C(=O)NNC1=NCCN1 | > 100 µM | > 100 µM | > 100 µM | > 100 µM | > 100 µM | > 100 µM | > 100 µM | > 100 µM | > 100 µM | > 100 µM | > 100 µM | > 100 µM | > 100 µM | – | > 100 µM | > 100 µM | > 100 µM | > 100 µM | > 100 µM
CC1(C)C(C#N)=[N+]([O-])C(C)(C)N1O | > 100 µM | > 100 µM | > 100 µM | > 100 µM | 73.4 µM | > 100 µM | > 100 µM | > 100 µM | > 100 µM | > 100 µM | > 100 µM | > 100 µM | > 100 µM | – | > 100 µM | > 100 µM | > 100 µM | > 100 µM | > 100 µM
N#CC1(C#N)NC(c2cccnc2)C(C#N)(C#N)NC1c1cccnc1 (stereo not given) | – | > 100 µM | > 100 µM | > 100 µM | > 100 µM | > 100 µM | > 100 µM | – | > 100 µM | > 100 µM | > 100 µM | > 100 µM | > 100 µM | > 100 µM | – | > 100 µM | > 100 µM | > 100 µM | > 100 µM
